Measured values from ChEMBL document CHEMBL3120075 (J Med Chem, 2014).

What was measured:
[1] = test system: Hepatitis C virus; test: Antiviral activity against HCV genotype 1a H77 infected in human HuH7 cells assessed as inhibition of viral RNA replication after 3 days by renilla luciferase reporter gene assay; format: functional, organism-based, Hepacivirus hominis; details: genotype 1a H77, Huh-7, 72 h
[2] = test system: Hepatitis C virus; test: Antiviral activity against HCV genotype 1b Con1 infected in human HuH7 cells assessed as inhibition of viral RNA replication after 3 days by renilla luciferase reporter gene assay; format: functional, organism-based, Hepacivirus hominis; details: isolate Con1, Huh-7, 72 h
[3] = Mean residence time in Sprague-Dawley rat at 1 mg/kg, iv; format: ADME, organism-based; design: dose 1 mg/kg, route intravenous; details: in vivo
[4] = Volume of distribution at steady state in Sprague-Dawley rat at 1 mg/kg, iv; format: ADME, organism-based; design: dose 1 mg/kg, route intravenous; details: in vivo, read-out: Vdss
[5] = Mean residence time in beagle dog at 0.2 mg/kg, iv; format: ADME, organism-based, Canis lupus familiaris; design: dose 0.2 mg/kg, route intravenous; details: in vivo
[6] = Half life in Sprague-Dawley rat at 1 mg/kg, iv; format: ADME, organism-based; design: dose 1 mg/kg, route intravenous; details: in vivo
[7] = Clearance in beagle dog at 0.2 mg/kg, iv; format: ADME, organism-based, Canis lupus familiaris; design: dose 0.2 mg/kg, route intravenous; details: in vivo
[8] = Clearance in Sprague-Dawley rat at 1 mg/kg, iv; format: ADME, organism-based; design: dose 1 mg/kg, route intravenous; details: in vivo
[9] = Volume of distribution at steady state in beagle dog at 0.2 mg/kg, iv; format: ADME, organism-based, Canis lupus familiaris; design: dose 0.2 mg/kg, route intravenous; details: in vivo, read-out: Vdss
[10] = Oral bioavailability in Sprague-Dawley rat at 2 mg/kg; format: ADME, organism-based; details: in vivo
[11] = Half life in beagle dog at 0.2 mg/kg, iv; format: ADME, organism-based, Canis lupus familiaris; design: dose 0.2 mg/kg, route intravenous; details: in vivo
[12] = Ratio of EC50 for HCV genotype 1a to EC50 for HCV genotype 1b; format: functional
[13] = test system: Hepatitis C virus; test: Ratio of EC50 for HCV genotype 1a H77 infected in human HuH7 cells in presence of human serum to EC50 for HCV genotype 1a H77 infected in human HuH7 cells; format: functional, Hepacivirus hominis, Huh-7
[14] = test system: Hepatitis C virus; test: Ratio of EC50 for HCV genotype 1a H77 infected in human HuH7 cells in presence of 10% BSA to EC50 for HCV genotype 1a H77 infected in human HuH7 cells; format: functional, Hepacivirus hominis, Huh-7
[15] = test system: Hepatitis C virus; test: Antiviral activity against HCV genotype 1a H77 infected in human HuH7 cells assessed as inhibition of viral RNA replication after 3 days by renilla luciferase reporter gene assay in presence of human serum; format: functional, organism-based, Hepacivirus hominis; details: genotype 1a H77, Huh-7, 72 h
[16] = test system: Hepatitis C virus; test: Antiviral activity against HCV genotype 1a H77 infected in human HuH7 cells assessed as inhibition of viral RNA replication after 3 days by renilla luciferase reporter gene assay in presence of 10% BSA; format: functional, organism-based, Hepacivirus hominis; details: genotype 1a H77, Huh-7, 72 h

Row | SMILES | EC50 [1] | EC50 [2] | further results
1 | COC(=O)N[C@H](C(=O)N1CCC[C@H]1c1nc2ccc(C#CC#Cc3ccc4nc([C@@H]5CCCN5C(=O)[C@@H](NC(=O)OC)C(C)C)[nH]c4c3)cc2[nH]1)C(C)C | 11 nM | 0.026 nM | –
2 | COC(=O)N[C@H](C(=O)N1CCC[C@H]1c1nc2ccc(C#Cc3ccc4nc([C@@H]5CCCN5C(=O)[C@@H](NC(=O)OC)C(C)C)[nH]c4c3)cc2[nH]1)C(C)C | > 44 nM | 0.14 nM | –
3 | COC(=O)N[C@H](C(=O)N1CCC[C@H]1c1nc2ccc(-c3ccc4cc(-c5ccc6nc([C@@H]7CCCN7C(=O)[C@@H](NC(=O)OC)C(C)C)[nH]c6c5)ccc4c3)cc2[nH]1)C(C)C | 0.11 nM | 0.004 nM | –
4 | COC(=O)N[C@H](C(=O)N1CCC[C@H]1c1ncc(-c2ccc(-c3ccc4nc([C@@H]5CCCN5C(=O)[C@@H](NC(=O)OC)C(C)C)[nH]c4c3)cc2)[nH]1)C(C)C | > 44 nM | 0.3 nM | –
5 | COC(=O)N[C@H](C(=O)N1CCC[C@H]1c1nc2ccc(-c3ccc(-c4ccc5nc([C@@H]6CCCN6C(=O)[C@@H](NC(=O)OC)C(C)C)[nH]c5c4)cc3)cc2[nH]1)C(C)C | 0.5 nM | 0.009 nM | –
6 | COC(=O)N[C@H](C(=O)N1CCC[C@H]1c1nc2ccc(-c3ccc(-c4ccc(-c5ccc6nc([C@@H]7CCCN7C(=O)[C@@H](NC(=O)OC)C(C)C)[nH]c6c5)cc4)cc3)cc2[nH]1)C(C)C | 3.7 nM | 0.044 nM | –
7 | C[C@H](NC(=O)c1ccc(Sc2ccc(N)cc2)c(Nc2ncnc3nc(C(C)(C)C)ccc23)c1)c1ccccc1 | 46 nM | 3 nM | –
8 | COC(=O)N[C@H](C(=O)N1CCC[C@H]1c1ncc(-c2ccc(-c3ccc(-c4ccc5nc([C@@H]6[C@H]7CC[C@H](C7)N6C(=O)[C@@H](NC(=O)OC)C(C)C)[nH]c5c4)cc3)cc2)[nH]1)C(C)C | 0.16 nM | 0.006 nM | MRT [3]: 2.42 h; Vd [4]: 1.81 L/kg; MRT [5]: 5.47 h; half-life [6]: 2.07 h; clearance [7]: 6.67 mL/min/kg; clearance [8]: 12.5 mL/min/kg; Vd [9]: 2.03 L/kg; bioavailability [10]: 26.3%; half-life [11]: 4.01 h
9 | COC(=O)N[C@H](C(=O)N1CCC[C@H]1c1ncc(-c2ccc(-c3ccc(-c4cnc([C@@H]5[C@H]6CC[C@H](C6)N5C(=O)[C@@H](NC(=O)OC)C(C)C)[nH]4)cc3)cc2)[nH]1)C(C)C | 0.21 nM | 0.009 nM | MRT [3]: 1.4 h; Vd [4]: 0.98 L/kg; MRT [5]: 6.6 h; half-life [6]: 1.49 h; clearance [7]: 0.833 mL/min/kg; clearance [8]: 11.7 mL/min/kg; Vd [9]: 0.31 L/kg; bioavailability [10]: 35.2%; half-life [11]: 5.29 h
10 | COC(=O)N[C@H](C(=O)N1CCC[C@H]1c1nc(-c2ccc3cc(-c4ccc5[nH]c([C@@H]6CCCN6C(=O)[C@@H](NC(=O)OC)C(C)C)nc5c4)ccc3c2)c[nH]1)C(C)C | 0.071 nM | 0.007 nM | –
11 | COC(=O)N[C@H](C(=O)N1CCC[C@H]1c1ncc(-c2ccc(-c3ccc(-c4ccc5nc([C@@H]6CCCN6C(=O)[C@@H](NC(=O)OC)C(C)C)[nH]c5c4)cc3)cc2)[nH]1)C(C)C | 0.17 nM | 0.007 nM | MRT [3]: 1.71 h; Vd [4]: 1.76 L/kg; MRT [5]: 3 h; half-life [6]: 1.57 h; clearance [7]: 13 mL/min/kg; clearance [8]: 17.3 mL/min/kg; Vd [9]: 2.31 L/kg; bioavailability [10]: 11.5%; half-life [11]: 2.3 h
12 | COC(=O)N[C@H](C(=O)N1CCC[C@H]1c1nc2ccc(-c3ccc(-c4ccc5nc([C@@H]6CCCN6C(=O)[C@@H](NC(=O)OC)C(C)C)[nH]c5c4)s3)cc2[nH]1)C(C)C | 1.7 nM | 0.01 nM | –
13 | C[C@H](NC(=O)OCc1ccccc1)C(=O)Nc1cccc(C2S/C(=N\c3cccc(F)c3)N(Cc3ccco3)C2=O)c1 (stereo not given in full) | – | 580 nM | Ratio EC50 [12]: 1000
14 | COC(=O)N[C@H](C(=O)N1CCC[C@H]1c1nc2ccc(-c3ccc(-c4ccc(-c5cnc([C@@H]6[C@H]7CC[C@H](C7)N6C(=O)[C@@H](NC(=O)OC)C(C)C)[nH]5)cc4)cc3)cc2[nH]1)C(C)C | 0.66 nM | 0.021 nM | –
15 | COC(=O)N[C@H](C(=O)N1CCC[C@H]1c1ncc(C#Cc2ccc(-c3ccc4nc([C@@H]5CCCN5C(=O)[C@@H](NC(=O)OC)C(C)C)[nH]c4c3)cc2)[nH]1)C(C)C | 2.5 nM | 0.016 nM | –
16 | COC(=O)N[C@H](C(=O)N1CCC[C@H]1c1ncc(-c2ccc3c(c2)C(=O)c2cc(-c4cnc([C@@H]5CCCN5C(=O)[C@@H](NC(=O)OC)C(C)C)[nH]4)ccc2-3)[nH]1)C(C)C | 0.3 nM | 0.018 nM | –
17 | O=C(Nc1ccncc1)c1ccc(-c2csc(NC(=O)[C@@H]3CCCN3C(=O)OCc3ccccc3)n2)cc1 | – | 80 nM | Ratio EC50 [12]: 1000
18 | COC(=O)N[C@H](C(=O)N1CCC[C@H]1c1ncc(-c2ccc3c(c2)C(C)(C)c2cc(-c4cnc([C@@H]5CCCN5C(=O)[C@@H](NC(=O)OC)C(C)C)[nH]4)ccc2-3)[nH]1)C(C)C | 1.2 nM | 0.014 nM | –
19 | CN(C)[C@@H](C(=O)N1CCC[C@H]1C(=O)Nc1ccc(/C=C/c2ccc(NC(=O)[C@@H]3CCCN3C(=O)[C@@H](c3ccccc3)N(C)C)cc2)cc1)c1ccccc1 | – | 0.1 nM | –
20 | COC(=O)N[C@H](C(=O)N1CCC[C@H]1c1ncc(-c2ccc(C#Cc3ccc4nc([C@@H]5CCCN5C(=O)[C@@H](NC(=O)OC)C(C)C)[nH]c4c3)cc2)[nH]1)C(C)C | 0.38 nM | 0.011 nM | –
21 | COC(=O)N[C@H](C(=O)N1CCC[C@H]1c1ncc(-c2ccc(-c3ccc(-c4ccc5nc([C@@H]6CCCN6C(=O)[C@@H](NC(=O)OC)C(C)C)[nH]c5c4)s3)cc2)[nH]1)C(C)C | 0.2 nM | 0.003 nM | –
22 | COC(=O)N[C@H](C(=O)N1CCC[C@H]1c1nc2ccc(-c3ccc4nc([C@@H]5CCCN5C(=O)[C@@H](NC(=O)OC)C(C)C)[nH]c4c3)cc2[nH]1)C(C)C | > 44 nM | 35 nM | –
23 | COC(=O)N[C@H](C(=O)N1CCC[C@H]1c1ncc(-c2ccc3c(c2)Cc2cc(-c4cnc([C@@H]5CCCN5C(=O)[C@@H](NC(=O)OC)C(C)C)[nH]4)ccc2-3)[nH]1)C(C)C | 0.094 nM | 0.013 nM | –
24 | COC(=O)N[C@H](C(=O)N1CCCC[C@H]1c1ncc(-c2ccc(-c3ccc(-c4cnc([C@@H]5CCCN5C(=O)[C@@H](NC(=O)OC)C(C)C)[nH]4)cc3)cc2)[nH]1)C(C)C | 0.45 nM | 0.005 nM | –
25 | COC(=O)N[C@H](C(=O)N1CCC[C@H]1c1nc2ccc(-c3cc4cc5sc(-c6ccc7nc([C@@H]8CCCN8C(=O)[C@@H](NC(=O)OC)C(C)C)[nH]c7c6)cc5cc4s3)cc2[nH]1)C(C)C | 0.2 nM | 0.016 nM | –
26 | COC(=O)N[C@H](C(=O)N1CCC[C@H]1c1ncc(-c2ccc3c(c2)C(F)(F)c2cc(-c4ccc5nc([C@@H]6[C@H]7CC[C@H](C7)N6C(=O)[C@@H](NC(=O)OC)C(C)C)[nH]c5c4)ccc2-3)[nH]1)C(C)C | 0.056 nM | 0.004 nM | Ratio EC50 [13]: 14; Ratio EC50 [14]: 14; EC50 [15]: 0.784 nM; EC50 [16]: 0.784 nM
27 | Cc1ccc(O)c(-c2nn(C)cc2C#Cc2ccc(NC(=O)[C@@H]3COCCN3C(=O)[C@H](NC(=O)OC(C)(C)C)c3ccccc3)cc2)c1 | – | < 1000 nM | Ratio EC50 [12]: 1000
28 | COC(=O)N[C@H](C(=O)N1CCC[C@H]1c1ncc(-c2ccc3c(c2)C(F)(F)c2cc(-c4ccc5nc([C@@H]6CCCN6C(=O)[C@@H](NC(=O)OC)C(C)C)[nH]c5c4)ccc2-3)[nH]1)C(C)C | 0.04 nM | 0.003 nM | MRT [3]: 2.21 h; Vd [4]: 0.93 L/kg; MRT [5]: 3.69 h; half-life [6]: 1.83 h; clearance [7]: 8.83 mL/min/kg; clearance [8]: 7 mL/min/kg; Vd [9]: 1.96 L/kg; bioavailability [10]: 36.7%; half-life [11]: 2.63 h
